# Experimental data taken from PubChem BioAssay AID463074 (Broad Institute, 2010).
# Active and inactive are the calls of the source.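 How the source made its calls: active means AC50 no more than tenfold above the top dose tested, or full inhibition at every dose with a flat fit (cut at about 19 µM in these data); inconclusive means flat curve fit with inhibition between 30% and 70%, or poor fit; inactive means AC50 more than tenfold above the top dose tested.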
# Tested on: HMLE_sh_eGFP viability, CellTiter-Glo luminescence, 72 h
# Assay: viability loss of HMLE_sh_eGFP cells – cell-based, luminescence, counter-screen for HMLE_sh_ECad selective toxicity project, dose response (AID 463074);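 further: counterscreen control line to flag general toxicity for the HMLE_sh_ECad screen; potency for loss of viability as luminescence drops below DMSO wells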
row,SMILES,AC50
1,CC(=O)[C@@]1(O)C(C)CC2C3C=C(C)C4=Cc5c(cnn5-c5ccccc5)C[C@]4(C)C3C(O)C[C@@]21C (some centres undefined),4.03 µM
2,CNC(=S)N/N=C/c1cn(Cc2ccc(C)cc2)c2ccccc12,5.94 µM
3,COc1ccc(CNC(=O)c2c(N)n(CCCN3CCOCC3)c3nc4ccccc4nc23)cc1,6.67 µM
4,CC(C)(C)c1ccc(C(=O)Nc2ccc(N3CCOCC3)cc2)cc1,17.3 µM
5,CC(=O)Oc1ccc2ccccc2c1C(NC(=O)Cc1ccccc1)c1ccc(Cl)cc1 (centres undefined),6.3 µM
6,CCOc1ccc(S(=O)(=O)N2CCN=C2c2ccccc2)cc1,3.1 µM
7,Cc1cccc(NC2=C/C(=N/S(=O)(=O)c3cccs3)c3ccccc3C2=O)c1,0.934 µM
8,Cc1ccc(/C=N/NC(=O)CNC(=O)COc2ccccc2)o1,> 19.5 µM (inactive)
9,CN(C)CCCn1c(=S)[nH]c2sc3c(c2c1=O)CCCC3,> 19.5 µM (inactive)
10,Cc1ccc(NC(=S)NC(NC(=O)Cc2cccc3ccccc23)C(Cl)(Cl)Cl)cc1 (centres undefined),3.41 µM
11,CCCCCCOc1ccc(/C(C)=N/NC2=NCCN2)cc1[N+](=O)[O-],3.69 µM
12,CCCCn1c(SCC(N)=O)nc2sc3c(c2c1=O)CCC3,> 19.5 µM (inactive)
13,O=C(NC(=S)Nc1ccc(N2CCCCC2)c(Cl)c1)c1cccs1,8.62 µM
14,S=c1[nH]nc(-c2ccccc2)n1/N=C/c1ccc(-c2ccccc2Cl)o1,5.93 µM
15,S=C(Nc1ccccc1Cl)N1CCCC(c2ccccc2)=N1,8.88 µM
16,COc1cc(CNC(C)(C)CO)cc(Br)c1OCc1ccc(Cl)cc1Cl,6.07 µM
17,O=S(=O)(Nc1ccc(-n2cccc2)cc1)c1ccc(Cl)c(Cl)c1,5.21 µM
18,N=c1c2c(ncn1Cc1ccco1)Oc1ccc3ccccc3c1C2c1ccccc1 (centres undefined),4.5 µM
19,Cc1ccc(/C=C/C(=O)NCCc2ccccc2)o1,> 19.5 µM (inactive)
20,COc1ccc(-c2cc([C@H]3[C@@H]4C=CCC[C@@]4(C)C(=O)N3Cc3ccccc3)ccc2F)cc1OC,5.67 µM
21,C/C(=N\Nc1ccccc1)c1c(O)[nH]c(=O)[nH]c1=O,2.25 µM
22,O=c1cc(C(F)(F)F)[nH]c2c(OC(F)(F)F)cccc12,> 19.5 µM (inactive)
23,COc1ccccc1Nc1ccc(NC(=O)c2cccc([N+](=O)[O-])c2C)cc1,3.82 µM
24,S=c1nc[nH]c2nc[nH]c12,1.52 µM
25,COc1ccc(/C=C/C(=O)c2ccc(O)cc2)cc1COc1ccc(F)cc1,4.37 µM
26,Cc1ccc(-c2cc(NC(=O)CCl)n(-c3ccccc3)n2)cc1,7.29 µM

row,SMILES,AC50
1,Cc1ccc(SC[C@H](C)CN2CC[C@H](C(C)(C)C)CCC2=O)cc1,6.63 µM
2,COCCN(C(=O)C(C)C)c1nnc(-c2ccc(C(C)(C)C)cc2)s1,3.06 µM
3,CC(NS(=O)(=O)OCC(Cl)(Cl)Cl)c1ccc(C(C)(C)C)cc1 (centres undefined),3.57 µM
4,COc1ccc(S[C@@H](CCN2CC[C@H](NC(=O)OCc3ccccc3)CCC2=O)c2ccccc2)cc1,3.12 µM
5,Cc1cc(C)cc(NC(=O)CSc2ccc(-c3ccccn3)nn2)c1,3.61 µM
6,CC(=O)Nc1ccc(-c2csc(NC(=O)Cc3ccccc3F)n2)cc1,11.5 µM
7,OC(CNCC1CCCO1)Cn1c2ccc(Cl)cc2c2cc(Cl)ccc21 (centres undefined),7.38 µM
8,Cc1cccc2[nH]c3c(N4CC=C(c5ccc(F)cc5)CC4)ncnc3c12,5.01 µM
9,O=C(N/N=C\c1cc(Br)ccc1O)c1ccc(S(=O)(=O)N2CCCCC2)cc1,2.75 µM
10,Cc1ccccc1/C=N/Nc1ccnc2cc(Cl)ccc12,4.44 µM
11,O=C(/C(=C/O)N=Nc1ccc(Cl)cc1)c1ccncc1,6.53 µM
12,Oc1ccc(/C=N/Nc2ccc(C(F)(F)F)cn2)c(O)c1,6.58 µM
13,CC1CC/C(=C\c2ccc3c(c2)OCO3)C(=O)/C1=C/c1ccc2c(c1)OCO2 (centres undefined),5.09 µM
14,COc1ccc2nc(NC(=O)c3ccc([N+](=O)[O-])o3)sc2c1,3.77 µM
15,O=C(CCSc1ccc(Cl)cc1)N1CCN(c2ccc(O)cc2)CC1,1.48 µM
16,Cc1[nH]nc2nc(SCC(=O)NC3CCCCC3)n(-c3ccc(Br)cc3)c(=N)c12,14.4 µM
17,CN(C)c1ccc(-c2cc([C@H]3[C@@H]4C=CCC[C@@]4(C)C(=O)N3Cc3ccccc3)ccc2F)cc1,6.46 µM
18,CCCOc1ccc(C(=O)C(CN2CCCC2)c2ccccc2)cc1 (centres undefined),3.3 µM
19,Cc1cc(Nc2nc(Cl)c(Cl)cc2Cl)n(-c2ccccc2)n1,11.3 µM
20,O=[N+]([O-])c1cc(S(=O)(=O)C(F)(F)F)ccc1Sc1nc2ccccc2[nH]1,4.46 µM
21,CC(C)C(=O)NC(c1ccccc1)c1cc([N+](=O)[O-])c2cccnc2c1O (centres undefined),5.91 µM
22,CCCCCCCCOC(=O)c1c(CSC(=N)N)n(C)c2cc(Br)c(OC(C)=O)cc12,3.72 µM
23,CCCc1cc(SCC(=O)Nc2c(C)n(C)n(-c3ccccc3)c2=O)n2c(nc3ccccc32)c1C#N,> 19.5 µM (inactive)
24,COc1ccc2cc(/C=N/NC(=O)c3ccc(CN(c4cccc(Cl)c4Cl)S(C)(=O)=O)cc3)c(Cl)nc2c1,0.211 µM
25,COc1ccc(-c2c(C#N)c(SCC(=O)c3cc4ccccc4oc3=O)nc(C)c2C(=O)Nc2ccccc2)cc1,1.5 µM
26,Cc1ccc(-n2nnnc2SC(C(=O)c2c[nH]c3ccccc23)c2ccccc2)cc1 (centres undefined),3.21 µM

row,SMILES,AC50
1,O=C(O)c1cccc(S(=O)(=O)NNc2ccccc2C(F)(F)F)c1,11.3 µM
2,CC1(C)Cc2c(C#N)c(NC3CCCCC3)nc(-c3ccco3)c2CO1,7.19 µM
3,O=C1C=C(Nc2ccc(F)cc2)c2ccccc2C1=O,6.78 µM
4,c1cc2cc(-c3c(-c4ccc5c(c4)OCO5)noc3-c3ccsc3)ccc2[nH]1,4.19 µM
5,NS(=O)(=O)c1ccc(NC(=O)COC(=O)c2c3c(nc4ccccc24)/C(=C\c2ccc4c(c2)OCO4)CCC3)cc1,6.87 µM
6,Cc1ccc(C(=O)Cn2nnc3c(sc4nc5c(c(-c6ccccc6)c43)CCC5)c2=O)cc1,0.687 µM
7,O=C(NCCCSc1ccccc1)c1cc(Br)ccc1O,5.85 µM
8,CC(=O)Nc1ccc(NC(=O)CSc2ncc(C(=O)Nc3ccccc3)c(=O)n2C)cc1,5.44 µM
9,O=C(CN(c1cccc(C(F)(F)F)c1)S(=O)(=O)c1ccc(Cl)c([N+](=O)[O-])c1)NCc1ccc(F)cc1,3.26 µM
10,O=[N+]([O-])c1ccc(CP(=O)(c2ccccc2)c2ccccc2)cc1,> 19.5 µM (inactive)
11,CC1=CC(C)(C)N(S(=O)(=O)c2ccc(F)cc2)c2ccc(C)cc21,2.61 µM
12,Cc1cc(C)cc(CC(Cc2nc3ccccc3[nH]2)c2nc3ccccc3[nH]2)c1 (centres undefined),7.82 µM
13,Cc1ccc(S(=O)(=O)N2CCN(C(=O)COc3ccc(NC(=O)c4ccco4)cc3)CC2)cc1,> 19.5 µM (inactive)
14,CC(C)(C)c1cc(Cl)ccc1OCCOCCN1CCCC1,6.54 µM
15,COc1cc(/C=C/C(=O)c2ccc3c(c2)OCO3)cc(Cl)c1O,10.8 µM
16,Cc1ccc(C(=O)N2N=C(c3ccc(Br)cc3)CC2c2ccccc2O)cc1 (centres undefined),3.54 µM
17,CC(C)c1ccccc1OCC(O)CN(CC(O)COc1cccc2ccccc12)C(C)C (centres undefined),3.47 µM
18,O=C(O)c1ccc(CSc2nc(-c3ccc(Cl)cc3)cc(C(F)(F)F)n2)cc1,9.94 µM
19,CCNC(=S)N1N=C2c3ccccc3CCC2C1c1ccc(F)cc1 (centres undefined),2.91 µM
20,CCc1ccc2[nH]c3nc(N/N=C/c4cccc(O)c4)nnc3c2c1,< 0.16 µM
21,O=[N+]([O-])c1nn(-c2ccc3c(c2)OCCO3)n(O)c1=NCCC1=CCCCC1,17.9 µM
22,CCOC(=O)c1c(NC(C)=O)sc2c1CCC(C=O)=C2Sc1ccccc1,3.63 µM
23,CCCc1ccc(-c2cc(NC(=O)CSc3nnc(N)s3)n(-c3ccccc3)n2)cc1,6.67 µM
24,NC(=O)CC(NC(=O)c1ccc(Br)cc1)c1ccc(NCc2ccc(F)cc2)c([N+](=O)[O-])c1 (centres undefined),4.61 µM
25,Cc1cccc(Cn2cc(/C=C/[N+](=O)[O-])c3ccccc32)c1,3.47 µM
26,Cc1ccc(N2NC(=O)/C(=C\c3cc4c(cc3[N+](=O)[O-])OCO4)C2=O)cc1C,4.44 µM

row,SMILES,AC50
1,O=C(NC12CC3CC(CC(C3)C1)C2)c1ccc(-c2ccccc2Cl)o1,3.81 µM
2,O=C(NC(CSCc1ccccc1)C(=O)N/N=C/c1ccc(O)cc1O)c1ccc([N+](=O)[O-])cc1 (centres undefined),2.14 µM
3,CCNC(=S)N/N=C/c1cn(Cc2ccc(F)cc2)c2ccccc12,10.9 µM
4,CCOC(=O)C1=C(C)N2C(=C(C#N)[C@@H]1c1ccc(C(=O)OC)cc1)SC[C@@]2(O)C(C)(C)C,4.79 µM
5,Cc1cc([N+](=O)[O-])nn1Cc1ccc(C(=O)N/N=C/c2ccc(O)cc2O)cc1,2.25 µM
6,N#CCc1ccc(NC(=O)Nc2cccc(Cl)c2)cc1,20 µM
7,CCOc1cc(NC(=O)c2ccccn2)c(OCC)cc1NC(=O)c1ccccc1,> 19.5 µM (inactive)
8,COc1cc(-c2nc(-c3ccc(NC(=O)c4ccc(Br)o4)cc3)no2)cc(OC)c1OC,3.5 µM
9,c1ccc(-c2c3ccccc3nc3[nH]c4ccccc4c23)cc1,2.95 µM
10,C=CCC[C@H](Cc1ccc(F)cc1)C(=O)OC[C@@H](Cc1c[nH]c2ccccc12)NC(=O)[C@@H](CC=C)CC(=O)N(CCO)Cc1ccccc1,4.34 µM
11,O=C(CSCc1cccc(Br)c1)N/N=C/c1ccc2c(c1)OCO2,5.34 µM
12,CN(C)c1ccc(/C=C(\Cl)c2nc3ccccc3s2)cc1,2.85 µM
13,N#C/C(=C/c1ccc(O)c(O)c1)C(=O)NCc1ccc(Cl)cc1,13.7 µM
14,Cc1cc(C)c(O)c(-c2n[nH]c3c2C(c2cccc(O)c2)N(Cc2ccco2)C3=O)c1 (centres undefined),6.73 µM
15,Cc1ccc(-c2cc([C@H]3[C@@H]4C=CCC[C@@]4(C)C(=O)N3Cc3ccccc3)ccc2F)cc1,5.2 µM
16,O=[N+]([O-])c1ccc(S(=O)(=O)Nc2ccc(-c3csc(-c4ccccc4)n3)cc2)cc1,4.06 µM
17,CC(C)(C)c1ccc(/C=C/C(=O)c2ccc(NC3=NCCCS3)cc2)cc1,6.11 µM
18,OC(COCC(F)(F)C(F)(F)C(F)(F)C(F)F)Cn1c2ccccc2c2ccccc21 (centres undefined),6.63 µM
19,C1=C(c2sc3ccccc3c2-c2ccc(OCCN3CCOCC3)cc2)CCCC1,1.94 µM
20,COc1ccc(Nc2nc(-c3ccccc3O)nc3ccccc23)cc1,4.79 µM
21,Oc1cccc(C(O)CNCc2ccc(OCc3ccc(Cl)cc3Cl)cc2)c1 (centres undefined),7.09 µM
22,Cn1c(O)c(/C=N/Nc2ccccc2)c(=O)n(C)c1=O,4.08 µM
23,O=C(Nc1ccc(CN2CCOCC2)cc1)c1ccc(-c2ccc(Cl)cc2Cl)o1,7.06 µM
24,COc1ccc(-c2sc3ccc(N4CCOCC4)cc3c2C#CC(C)(C)O)cc1,1.3 µM
25,Clc1ccc(Cl)c(OCCCCN2CCNCC2)c1,9.58 µM
26,O=C(O)c1ccc(C=C(c2nc3ccccc3s2)c2nc3ccccc3s2)cc1,5.12 µM
